“Also recorded” adds a separate entry of the source. Where two headings read alike, the source gives them in different places.
Assays:
[1] = test system: renal ischemia-reperfusion injury; assay: Renal function (creatinine, BUN) in rat model of renal ischemia-reperfusion injury; assay type: in vivo; conditions: for effect on creatinine: FIG. 7B; for renal function loss / acute kidney injury: P≦0.05; for plasma creatinine: not significant (P>0.05), FIG. 5B; for creatinine levels: FIG. 1B
Experimental: This example illustrates the effect of multiple dosing strategies of AMD3465 in an in vivo rat model of renal ischemia-reperfusion injury in which the renal artery and vein of both kidneys were clamped for 45 minutes followed by removal of the clamps and reperfusion with blood. […] Group 1 follows this dosing regimen as illustrated in FIG. 1A. FIGS. 1B and 1C show creatinine and BUN levels in mg/dL of Group 1 subjects compared to subjects following different dosing strategies shown in FIG. 1A using 10 mg/kg. Also shown in FIG. 1A—Group 2 was dosed at −15 min and +2 hrs and +4 hrs and Group 3 at time 0 and +2 hrs.
FIG. 5A diagrams the dosing regimen timeline for groups 1 and 2. FIGS. 5B, 5C and 5D show the creatine (serum or plasma) and blood urea nitrogen levels of the AMD treated groups, vehicle treated and normal subjects. Dosing was carried out with two 1 mg/kg administrations (Group 1) or 5 mg/kg in a single dose (Group 2). […] FIG. 5C and FIG. 5D illustrate individual data points of each rat for plasma creatinine and blood urea nitrogen, respectively.
FIG. 6A illustrates the dosing regimen.
FIG. 7A illustrates the dosing regimen. Group 1 was administered 0.01 mg/kg both 15 minutes before and 3 hours after ischemia; Group 2 was administered 0.1 mg/kg at 15 minutes before.

[2] = test system: myeloperoxidase activity; conditions: both regimens of FIG. 6A; FIG. 8D
Text: (§1) Data for FIGS. 8A, 8B and 8C were generated as described for FIGS. 2C, 2D and 3C, respectively.

[3] = test system: white blood cells; conditions: normal rats; single dose 1 mg/kg at time 0 versus 0.1 mg/kg twice (time 0 and 3 hrs later); FIG. 9
[4] = test system: renal ischemia-reperfusion injury; assay: Microvascular permeability: rat IgG immunostaining of kidney and serum vWF ELISA after renal ischemia-reperfusion; assay type: in vivo
Text: Leakage of plasma proteins and secretion of von Willebrand Factor (vWF) are two indicators of the loss of microvascular integrity. FIGS. 3A and 3B are images of kidney tissue harvested 24 hrs after renal ischemia-reperfusion from subjects treated with the vehicle and AMD3465, respectively; tissue sections were immunostained with an antibody that recognizes rat immunoglobulin (IgG) and immunoreactivity quantified by Metamorph analysis illustrated in FIG. 3C. […] Renal ischemia-reperfusion rats that received AMD3465 represent Group 1 rats in FIG. 1A.
as §1

[5] = test system: renal ischemia-reperfusion injury; assay: Kidney histology: injury score (hematoxylin/eosin) and TUNEL score after renal ischemia-reperfusion; assay type: in vivo, rat
Experimental: Rats were dosed as described for Group 1 rats in FIG. 1A. […] FIGS. 2C and 2D show graphs of the Injury and TUNEL score, respectively. Injury was evaluated by scoring hematoxylin and eosin stained kidney sections on a scale of 1 to 4 for proteinaceous cast formation, cell exfoliation, vascular congestion and loss of tubular architecture. TUNEL staining was carried out on kidney sections to identify apoptotic cells that were then quantified by Metamorph analysis.
as §1

[6] = rat, in vivo
Experimental: FIG. 4A provides body weight data of subjects administered vehicle, and subjects in Group 1 and Group 2 (Groups described in FIG. 1A). […] FIG. 4B gives white blood cell (WBC) counts at 24 hours of Group 1 and 2 subjects, subjects administered vehicle and normal subjects administered AMD3465.

[7] = test system: IL-6/IL-10 mRNA expression; conditions: Group 1 dosing

c1cc(CN2CCCNCCNCCCNCC2)ccc1CN1CCCNCCNCCCNCC1 [AMD3100, 1,1′-[1,4-phenylene-bis(methylene)]-bis-1,4,8,11-tetraazacyclotetradecane]
effect on creatinine ([1]; 0.01 mg/kg both 15 minutes before and 3 hours after ischemia (Group 1, FIG. 7A)): less positive results
renal function loss / acute kidney injury ([1]; 0.1 mg/kg 15 minutes prior to ischemia and 3 hrs later (Group 1, FIG. 6A)): therapeutically effective
effect on creatinine ([1]; 0.1 mg/kg at 15 minutes before ischemia (Group 2, FIG. 7A)): comparable to that shown in FIG. 6B
renal function loss / acute kidney injury ([1]; 1 mg/kg only at 15 minutes prior to ischemia (Group 2, FIG. 6A)): therapeutically effective
rats that demonstrated lower plasma creatinine (individual data points) ([1]; FIG. 5C, dosing of FIG. 5A): five
plasma creatinine levels ([1]; regimens of FIG. 6A (0.1 mg/kg twice or 1 mg/kg once), FIG. 6B): reduction
BUN levels ([1]; regimens of FIG. 6A (0.1 mg/kg twice or 1 mg/kg once), FIG. 6C): reduction
plasma BUN ([1]; regimens of FIG. 7A (0.01 mg/kg twice or 0.1 mg/kg once), FIG. 7C compared with FIG. 6C): only slightly less effective
plasma creatinine ([1]; single dose of 5 mg/kg (Group 2, FIG. 5A)): decrease
plasma creatinine ([1]; two doses of 1 mg/kg (Group 1, FIG. 5A)): decrease
myeloperoxidase activity, a measure of neutrophilic infiltration into the kidney tissue [2]: lowered myeloperoxidase activity
mobilization of white blood cells [3]: Comparable results
luminal IgG score ([4]; regimen of FIG. 6A (0.1 mg/kg twice or 1.0 mg/kg once), FIG. 8C): significant effect
TUNEL score ([5]; regimen of FIG. 6A (0.1 mg/kg twice or 1.0 mg/kg once), FIG. 8B): significant effect
injury score ([5]; regimen of FIG. 6A (0.1 mg/kg twice or 1.0 mg/kg once), compared to vehicle, FIG. 8A): lowered significantly

c1ccc(CNCc2ccc(CN3CCCNCCNCCCNCC3)cc2)nc1 [AMD3465, N-[1,4,8,11-tetraazacyclotetradecanyl-1,4-phenylene-bis-(methylene)]-2-aminomethyl-pyridine]
loss of renal function based on levels of serum creatine and serum blood urea nitrogen (BUN) ([1]; 10 mg/kg 15 min prior to ischemia and 2 hrs later (Group 1), 24 hrs after reperfusion): ameliorated the loss of renal function
creatinine levels ([1]; Group 1: 10 mg/kg at -15 min and +2 hrs, 24 hrs after reperfusion, P<0.05): closest to normal
BUN levels ([1]; Group 1: 10 mg/kg at -15 min and +2 hrs, 24 hrs after reperfusion, FIG. 1C, P<0.05): closest to normal
creatinine levels ([1]; Group 2: 10 mg/kg at -15 min, +2 hrs and +4 hrs, 24 hrs after reperfusion): closest to normal
BUN levels ([1]; Group 2: 10 mg/kg at -15 min, +2 hrs and +4 hrs, 24 hrs after reperfusion, FIG. 1C): closest to normal
body weight [6]: lost less body weight
tolerability [6]: well tolerated
white blood cell (WBC) counts [6]: comparable
ratio of IL-6/IL-10 mRNA expression ([7]; 5 hrs post-reperfusion, compared to vehicle): drops more drastically
ratio of IL-6/IL-10 mRNA expression ([7]; 24 hrs post-reperfusion): has dropped
frequency of serum proteins measured by rat IgG in the renal tubular lumen ([4]; Group 1 dosing, kidney harvested 24 hrs after renal ischemia-reperfusion, vs vehicle, FIG. 3C): less
circulating levels of the cleaved form of von Willebrand factor (serum, ELISA) ([4]; Group 1 dosing, vs vehicle, FIG. 3D): lower
structural integrity of the kidney ([5]; Group 1 dosing (10 mg/kg -15 min, +2 hrs), 24 hr post-reperfusion, vs vehicle, 10 mg/kg): maintained structural integrity; also recorded: remained intact
renal injury (Injury score) ([5]; Group 1 dosing (10 mg/kg -15 min, +2 hrs), 24 hr post-reperfusion, vs vehicle, FIG. 2C, 10 mg/kg): decreasing renal injury; also recorded: significantly reduced
cell death (TUNEL score) ([5]; Group 1 dosing (10 mg/kg -15 min, +2 hrs), 24 hr post-reperfusion, vs vehicle, FIG. 2D, 10 mg/kg): decreasing; also recorded: significantly reduced

Source: patent publication US20110245265A1, “CXCR4 ANTAGONISTS FOR KIDNEY INJURY” (GENZYME CORPORATION, priority 2008, published 2011)
